Measurements published in US9796962B2, “Method for generating pancreatic hormone-producing cells” (Kyoto University, priority 2013, dated 2017).
Structures can show the parent of a compound that is named as a salt.

Tests used:
[1] = test system: Human iPS cell line 201B7; assay: Differentiation of human iPS cell line 201B7 into insulin producing cells (step 3 with 4 factors), flow cytometry; assay type: cell-based
Experimental: Human iPS cell line 201B7 (this cell line can be obtained from Center for iPS Cell Research And Application, Kyoto University, Takahashi K et al, Cell. 2007 131:861-72., the contents of this document is incorporated herein by reference) was used. The iPS cells were differentiated into insulin producing cells by using the following steps. The colonies of the iPS cell line were grown to 70% confluent in the culture plate and dissociated from the plate by using CTK solution (Reprocell). The dissociated colonies were then divided into single cells using Accutase™ and seeded in 24 well plates (Greiner) at 2.0×10^5/well. The cells were cultured in RPMI medium containing 2% FBS added with activin A (100 ng/ml) and CHIR99021 (3 μM) for 5 days. During this period, the medium was changed with the same fresh medium on the third and the fourth days. The cells obtained in Step 1 were cultured in improved MEM Zinc Option medium containing 1% B-27 (Invitrogen Corp.) added with dorsomorphin (1 μM), retinoic acid (2 μM), and SB431542 (10 μM) for 6 days. During this period, the medium was changed with the same fresh medium every two days. The cells obtained in Step 2 were cultured in improved MEM Zinc Option medium containing 1% B-27 (Invitrogen Corp.) added with forskolin (10 μM), nicotinamide (10 mM), dexamethasone (10 μM), ALK5 inhibitor II ((2-(3-(6-methylpyridin-2-yl)-1H-pyrazol-4-yl)-1,5-naphthyridine)) (5 μM) and sodium cromoglicate (0.001 mM, 0.01 mM, 0.1 mM, 1 mM, 5 mM, 10 mM or 20 mM) for more 12 days. During this period, the medium was changed with the same fresh medium every four days. The obtained cells analyzed using flow cytometry to determine the number of insulin producing cells in the same manner as Example 1. The addition of 1 mM or more sodium cromoglicate in the culture medium increased the ratio of insulin positive cells and the maximum insulin positive cell-ratio was obtained when 10 mM sodium cromoglicate was added (FIG. 1A). Insulin production was confirmed by immune staining of the cells (FIG. 1B). Further, cells were stained with anti-human C-peptide antibody (Peninsula Laboratories LLC.) and analyzed by flow cytometry to see the production of C-peptide which is obtained by processing of pro-insulin. […] The highest ratio of the insulin positive cells was obtained by 12 days-culture in step 3. […] (FIG. 2B) Cells from cell line 201B7 were subjected to steps 1 and 2 in the same manner as above and cultured for 12 days in step 3. The obtained cells were stained with Ki67 and the ability of the cells to proliferate was evaluated. […] In addition, the obtained cells were treated by using BD Cytofix/Cytoperm™ Kit and stained with monoclonal anti-glucagon clone K79bB10 (SIGMA). The cells were analyzed by flow cytometry to determine the number of the glucagon positive cells.

[2] = test system: Human iPS cell line 201B7; assay: Differentiation of 201B7 with 8 days step 3: marker gene PCR, immune staining, insulin amount; assay type: cell-based
Experimental: Human iPS cell line 201B7 was used. The cells were differentiated into insulin producing cells by the following steps. The colonies of the iPS cell line was grown to 80-90% confluence in the culture plate and dissociated from the dish by using CTK solution (Reprocell). The dissociated colonies were then divided into single cells using Accutase™ and seeded in 24 well plates (Greiner) at 2.0×10^5/well.
The cells were cultured in RPMI medium containing 1% B-27 added with activin A (100 ng/ml), CHIR99021 (1 μM) and Y-27632 (10 μM) for 2 days. Then, the cells were further cultured in RPMI medium containing 1% B-27 added with activin A (100 ng/ml) and CHIR99021 (1 μM) for more 3 days (Day 5). During this period, the medium was changed with the same fresh medium on the third (Day 3) and the fourth days (Day 4).
The cells obtained in Step 1 were cultured in improved MEM Zinc Option medium containing 1% B-27 added with dorsomorphin (1 μM), retinoic acid (2 μM), and SB431542 (10 μM) for 6 days (Day 11). During this period, the medium was changed with the same fresh medium every two days.
The cells obtained in Step 2 were cultured in improved MEM Zinc Option medium containing 1% B-27 added with forskolin (10 μM), nicotinamide (10 mM), dexamethasone (10 μM), ALK5 inhibitor II ((2-(3-(6-Methylpyridin-2-yl)-1H-pyrazol-4-yl)-1,5-naphthyridine)) (5 μM) and sodium cromoglicate (10 mM) for more 8 days (Day 19). During this period, the medium was changed with the same fresh medium every four days.
The cells at each step were collected, i.e. on Day 0, Day 5, Day 11 and Day 19, and the expressions of marker genes were determined by PCR (FIG. 5B). In the group where cells were cultured in the presence of sodium cromoglicate in step 3, the expression of NGN3 and GHRE (Ghrelin) were confirmed. The expression of SST (somatostatin) in the group where cells were cultured in the presence of sodium cromoglicate in step 3 was higher than that in the group where cells were cultured in the absence of sodium cromoglicate.
Further, the cells were subjected to immune staining and confirmed the production of proteins corresponding to the marker genes (FIG. 5C). The amount of insulin produced by the cells obtained by culturing the cells in the presence of sodium cromoglicate in step 3 and that produced by the cells obtained by culturing in the absence of sodium cromoglicate were compared, and the amount of insulin produced by the cells obtained with sodium cromoglicate was higher than that produced by the cells obtained without sodium cromoglicate (FIG. 5D).
The cells were subjected to immune staining and the production of pancreatic hormones was confirmed (FIGS. 6A and 6B).

[3] = test system: cell line 201B7; assay: Ki67 staining, ability of differentiated cells to proliferate; assay type: cell-based, human; details: 10 mM, 12 days in step 3, FIG. 3
Experimental: Cells from cell line 201B7 were subjected to steps 1 and 2 in the same manner as above and cultured for 12 days in step 3. The obtained cells were stained with Ki67 and the ability of the cells to proliferate was evaluated. […] In addition, the obtained cells were treated by using BD Cytofix/Cytoperm™ Kit and stained with monoclonal anti-glucagon clone K79bB10 (SIGMA). The cells were analyzed by flow cytometry to determine the number of the glucagon positive cells.

[4] = PCR, 10 mM in step 3, 8 days, FIG. 5B
[5] = immune staining, Day 19, FIGS. 6A and 6B

## O=C(O)c1cc(=O)c2c(OCC(O)COc3cccc4oc(C(=O)O)cc(=O)c34)cccc2o1 [sodium cromoglicate, sodium salt of 1,3-Bis(2-carboxychromon-5-yloxy)-2-hydroxypropane]
[1]; 10 mM, 8, 12 and 16 days in step 3, FIG. 2B
  ratio of insulin positive cells by culture period in step 3: increased in the groups cultured for 8 days, 12 days and 16 days
[1]; 10 mM, 4 days in step 3, FIG. 2B
  effect on ratio of insulin positive cells, 4 days in step 3: also confirmed, although the efficiency was low
[1]; 10 mM, 12 days in step 3, FIG. 4
  ratio of insulin positive cells: increased the ratio of both insulin positive cells and glucagon positive cells
[1]; 10 mM, 12 days in step 3, anti-glucagon flow cytometry, FIG. 4
  ratio of glucagon positive cells: increased the ratio of both insulin positive cells and glucagon positive cells
[1]; 10 mM, FIG. 2B
  culture period in step 3 giving the highest ratio of insulin positive cells: 12 days
[1]; anti-human C-peptide antibody, flow cytometry, FIG. 1C
  production of C-peptide: increased by addition of sodium cromoglicate in a dose dependent manner
[1]; step 3 12 days, FIG. 1A
  concentration giving the maximum insulin positive cell-ratio: 10 mM
  concentration in the culture medium that increased the ratio of insulin positive cells: ≥ 1 mM
[2]; Day 19, 4Fs plus sodium cromoglicate vs 4Fs, FIG. 5D
  amount of insulin produced by the cells, presence vs absence: higher
[2]; [4]
  expression of GHRE (Ghrelin): confirmed
  expression of NGN3: confirmed
  expression of SST (somatostatin), presence vs absence: higher
[2]; [5]
  expression of glucagon: increased
  expression of insulin: increased
  expression of somatostatin: increased
[3]
  number of Ki67 positive cells, presence vs absence: no substantial difference
